Reference: paper PMC12186753 (ACS pharmacology & translational science, 2025)
Several values for one entry are separate records, joined by “and”; a condition that tells them apart may be missing. Equal entries are not always repeated. Where two headings read alike, the source gives them in different places.

How the values were obtained:
plasmin [1] = molecular target: T1, plasmin (Homo sapiens, UniProt P00747); details: read-out: Plasmin Ki; S-2251, 42.5 nM human plasmin, Dixon plot; previously determined; cited from earlier work
T1 sequence (P00747 97-580 limits assumed): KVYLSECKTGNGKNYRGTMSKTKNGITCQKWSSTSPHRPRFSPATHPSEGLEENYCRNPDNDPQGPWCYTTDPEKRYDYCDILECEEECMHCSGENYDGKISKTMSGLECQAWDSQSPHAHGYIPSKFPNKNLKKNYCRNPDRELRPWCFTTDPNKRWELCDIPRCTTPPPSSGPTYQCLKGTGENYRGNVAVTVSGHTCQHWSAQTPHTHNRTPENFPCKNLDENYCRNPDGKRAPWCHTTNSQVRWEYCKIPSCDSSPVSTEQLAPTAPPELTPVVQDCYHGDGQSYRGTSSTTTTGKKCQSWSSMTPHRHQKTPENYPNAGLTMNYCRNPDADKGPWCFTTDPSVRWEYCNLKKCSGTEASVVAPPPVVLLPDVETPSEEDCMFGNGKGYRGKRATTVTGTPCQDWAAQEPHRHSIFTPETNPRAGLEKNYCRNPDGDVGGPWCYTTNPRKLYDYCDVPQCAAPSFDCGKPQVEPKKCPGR
T1 sequence (P00747 581-810 limits assumed): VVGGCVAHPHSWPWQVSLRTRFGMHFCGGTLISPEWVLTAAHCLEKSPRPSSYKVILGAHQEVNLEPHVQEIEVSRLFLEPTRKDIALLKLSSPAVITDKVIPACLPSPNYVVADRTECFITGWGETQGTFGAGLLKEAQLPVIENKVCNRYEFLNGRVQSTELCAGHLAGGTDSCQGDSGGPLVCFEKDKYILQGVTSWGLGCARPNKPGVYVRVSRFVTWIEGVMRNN

human tPA = human tPA (Homo sapiens, UniProt P00750); assay: tPA inhibition assay with chromogenic substrate S-2288 (Dixon plot, Cornish-Bowden plot); format: biochemical; details: for Mode of inhibition (Cornish-Bowden S/Vo vs I plot): tPA; for Ki: S-2288, 75 nM human tPA, PBS pH 7.4, Dixon plot
Chain of human tPA (P00750 36-562): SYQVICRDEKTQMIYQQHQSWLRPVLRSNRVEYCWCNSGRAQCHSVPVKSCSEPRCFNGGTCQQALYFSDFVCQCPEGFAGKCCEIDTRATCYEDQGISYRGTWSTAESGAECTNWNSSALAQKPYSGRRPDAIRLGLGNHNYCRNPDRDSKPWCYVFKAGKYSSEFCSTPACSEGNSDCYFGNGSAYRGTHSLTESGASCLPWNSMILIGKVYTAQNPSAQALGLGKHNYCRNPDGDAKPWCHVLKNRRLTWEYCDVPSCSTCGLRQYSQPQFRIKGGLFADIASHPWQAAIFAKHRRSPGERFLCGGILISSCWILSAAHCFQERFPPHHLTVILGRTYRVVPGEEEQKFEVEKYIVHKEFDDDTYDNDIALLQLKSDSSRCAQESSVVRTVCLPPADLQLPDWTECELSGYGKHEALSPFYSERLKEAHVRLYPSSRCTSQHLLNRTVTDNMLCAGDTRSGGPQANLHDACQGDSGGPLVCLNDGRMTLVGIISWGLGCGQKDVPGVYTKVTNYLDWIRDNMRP

plasmin [2] = molecular target: T1, plasmin; assay: Annular fibrin clot assay (FITC-tagged fibrin clot lysis by plasmin); format: biochemical; details: for IC50/Ki: annular clot IC50 over S-2251 plasmin Ki
human thrombin = human thrombin (Homo sapiens, UniProt P00734); assay: Thrombin inhibition assay with fluorogenic Thrombin Substrate III (Dixon plot, Cornish-Bowden plot); format: biochemical; details: for Mode of inhibition (Cornish-Bowden S/Vo vs I plot): thrombin; for Ki: TSIII, 0.25 U/mL human thrombin, PBS pH 7.4 at 10% DMSO, Dixon plot
plasmin [3] = molecular target: T1, plasmin; assay: Plasmin inhibition assay with chromogenic substrate S-2251 (Dixon plot, Cornish-Bowden plot); format: biochemical; details: for Mode of inhibition (Cornish-Bowden S/Vo vs I plot) / rpAMB (KiAMB/Kihetero) / rpTXA (KiTXA/Kihetero): plasmin; for Ki: read-out: Plasmin Ki, S-2251, 42.5 nM human plasmin, PBS pH 7.4, Dixon plot
[4] = molecular target: LBS on kringle domains of plasmin; details: cited from earlier work
plasmin [5] = details: read-out: Plasmin active site Ki reported in the literature; cited from earlier work

SMILES	Mode of inhibition (Cornish-Bowden S/Vo vs I plot) (human tPA)	Mode of inhibition (Cornish-Bowden S/Vo vs I plot) (human thrombin)	Ki (human thrombin; Thrombin Ki)	Mode of inhibition (Cornish-Bowden S/Vo vs I plot) (plasmin [3])	Ki (plasmin [3])	Ki (human tPA; read-out: tPA Ki)	Ki (human thrombin; read-out: Thrombin Ki)	rpAMB (KiAMB/Kihetero) (plasmin [3])	rpTXA (KiTXA/Kihetero) (plasmin [3])	other results
N=C(N)c1ccc(N)cc1 [4-amino benzamidine, reference compound]	competitive inhibitor	competitive inhibitor								Ki (plasmin [1]): 51 ± 2.4 µM; Ki (human tPA; tPA Ki): 148 µM; IC50 (plasmin [2]): 451 ± 70 µM
N=C(N)c1ccc(CN)cc1 [4-aminomethyl benzamidine, reference compound]	competitive inhibitor	competitive inhibitor	344 µM							Ki (plasmin [1]): 1070 µM; Ki (human tPA; tPA Ki): 5210 µM; IC50 (plasmin [2]): 32700 µM; IC50/Ki (plasmin [2]): 29.0
N=C(N)c1ccc(C(=O)O)cc1 [4-carboxy benzamidine, reference compound]		competitive inhibitor	151 µM							Ki (plasmin [1]): 292 ± 6.5 µM
N=C(N)c1ccccc1 [Benzamidine, reference compound]	competitive inhibitor	competitive inhibitor								
NCCCCCC(=O)O [EACA, ɛ-aminocaproic acid, reference compound]	weak competitive inhibitor	competitive inhibitor	65200 µM	weak competitive inhibitor						
N=C(N)c1ccc(CNC(=O)CCOCCOCCOCCOCCNC(=O)CCCCCN)cc1 [EACA-dPEG4-AMB]	competitive inhibitor	competitive inhibitor		competitive inhibitor	233 ± 5 µM	501 µM	4.05 µM and 4 µM			fold stronger inhibitor of thrombin than the TXA counterpart (human thrombin; EACA-dPEG4-AMB vs TXA-dPEG4-AMB, monovalent EACA vs monovalent TXA): 3 fold
N=C(N)c1ccc(OCCCCCOc2ccc(C(=N)N)cc2)cc1 [Pentamidine, reference compound]	competitive inhibitor	competitive inhibitor	4.48 µM and 4.5 µM							Ki (human tPA; tPA Ki): 42.7 µM and 43 µM; IC50 (plasmin [2]): 3.2 ± 1 µM; IC50/Ki (plasmin [2]): 1.5
NC[C@H]1CC[C@H](C(=O)O)CC1 [TXA, Tranexamic acid]				weak competitive inhibitor						Ki ([4]; read-out: Ki for LBS on the K1 domain of plasmin, K1 domain): 1.1 µM; Ki ([4]; read-out: Ki for the other plasmin kringle domain LBS, other kringle domains): ~750 µM; Ki (plasmin [5]): ~40000 µM
N=C(N)c1ccc(CNC(=O)CCOCCOCCOCCOCCNC(=O)[C@H]2CC[C@H](CN)CC2)cc1 [TXA-dPEG4-AMB]	competitive inhibitor	competitive inhibitor		competitive inhibitor	42 ± 12 µM	230 µM and 231 µM	14.5 µM and 14 µM	26	509	
N=C(N)c1ccc(CNC(=O)CCOCCOCCOCCOCCOCCOCCOCCOCCNC(=O)[C@H]2CC[C@H](CN)CC2)cc1 [TXA-dPEG8-AMB]	not to be a solely competitive inhibitor	competitive inhibitor		competitive inhibitor	99.4 µM and 99 µM	292 ± 0.4 µM	32.4 µM and 32 µM	11	216	
N=C(N)c1ccc(CNC(=O)CCOCCOCCOCCOCCOCCOCCOCCOCCOCCOCCOCCOCCNC(=O)[C@H]2CC[C@H](CN)CC2)cc1 [TXA-dPEG12-AMB]	competitive inhibitor	competitive inhibitor		competitive inhibitor	207 ± 4.1 µM	641 µM	45.7 µM and 46 µM	5	103	
N=C(N)c1ccc(CNC(=O)CCOCCOCCOCCOCCOCCOCCOCCOCCOCCOCCOCCOCCOCCOCCOCCOCCOCCOCCOCCOCCOCCOCCOCCOCCOCCOCCOCCOCCOCCOCCOCCOCCOCCOCCOCCOCCNC(=O)[C@H]2CC[C@H](CN)CC2)cc1 [TXA-dPEG36-AMB]	not to be a solely competitive inhibitor	competitive inhibitor		competitive inhibitor	75.4 µM and 75 µM	136 ± 0.7 µM	77.5 µM and 78 µM	14	285	
N=C(N)c1ccc(CNC(=O)CN(CC(=O)NCc2ccc(C(=N)N)cc2)CC(=O)NCc2ccc(C(=N)N)cc2)cc1 [Tri-AMB]	competitive inhibitor	competitive inhibitor				164 ± 17 µM	10.7 µM and 11 µM			IC50 (plasmin [2]; read-out: Annular IC50, 850 nM plasmin, annular fibrin clot, from Vmax): 7.7 ± 3 µM
